Where a name gives a salt, the structure may show the parent alone.
Tests used:
[1] = system: hypertensive anterior uveitis associated with clinical signs of cytomegalovirus (CMV) iritis; test: Case report: topical valganciclovir for hypertensive anterior uveitis with clinical signs of CMV iritis (Example 5); format: in vivo, human
Protocol: Valganciclovir was extracted from the tablet form (450 mg, Valcyte, Roche). Briefly, tablets were dissolved in 0.001N HCl (2 ml per tablet), the insoluble excipients were isolated by centrifugation at 16,000 g, the solution was then filtered through 0.2 μm filter into ice-cold isopropanol (20 ml per tablet) leading to precipitation of the valganciclovir. The precipitate was spun down at 3,000 g, isopropanol was decanted and remaining volatile solvents were removed in the lyophilizer. The identity of valganciclovir was confirmed by liquid chromatography-mass spectrometry (LC-MS). 1% (w/w) valganciclovir ointment in the oleaginous base (20% mineral oil and 80% white petrolatum) was made by following standard compounding practices.
The patient was referred to us […] with chronic low-grade iritis and IOPs that were not adequately managed with medications (prednisolone acetate, brimonidine, and dorzolamide/timolol). Based on the history, pattern of keratic precipitates, mild anterior chamber inflammation, iris atrophy and elevated IOP (25 mmHg in the right eye and 16 mmHg in the left eye) CMV iritis was suspected. […]. PCR of the aqueous was negative for CMV, herpes simplex virus (HSV), and varicella-zoster virus (VZV) DNA.^6 However, because we had previously observed false negative PCR results in a substantial proportion of eyes suspected to have CMV iritis on clinical grounds, we decided to start a course of oral valganciclovir (900 mg twice daily). Within six weeks their IOP returned to normal levels and after 3 months all keratic precipitates completely resolved.
Nine months after the start of valganciclovir therapy, valganciclovir was discontinued and twice daily ganciclovir gel, 0.15%, was started. […] The patient refused to restart oral valganciclovir due to concerns about the toxicity of systemic valganciclovir, and continued with ganciclovir gel, topical corticosteroids, and topical anti-hypertensives.
At this same time, the patient began treating their condition with self-compounded topical valganciclovir. They initially wore a contact lens soaked overnight in 5% valganciclovir and later formulated 5% valganciclovir eye drops, which they administered 2-4 times per day. With this approach the patient's ocular inflammation and IOP improved and surgery was postponed, but the patient still required topical corticosteroids and topical anti-hypertensive medications. After 3 years of controlled inflammation on valganciclovir eye drops, the patient became concerned about medication stability and began formulating 1% valganciclovir ointment in an oleaginous base (80% white petrolatum and 20% mineral oil). […] With long-term use of topical valganciclovir ointment, the patient was able to taper off topical corticosteroids and topical anti-hypertensives and has remained stable since then (9 months).

[2] = system: CMV-induced inflammation in the eye; test: Valganciclovir hydrochloride ophthalmic ointments tested in a patient with CMV-induced inflammation in the eye (Example 4); format: in vivo, human; details: topical ophthalmic ointment, 1% w/w and 5% w/w, one patient
Protocol: The 1% w/w and 5% w/w valganciclovir hydrochloride ophthalmic ointments were tested in a patient with CMV-induced inflammation in the eye.

`CC(C)[C@H](N)C(=O)OCC(CO)OCn1cnc2c(=O)nc(N)[nH]c21` (stereo partly drawn) [valganciclovir, valganciclovir hydrochloride] was tested, and the “ocular inflammation and intraocular pressure” value ([1]; oral valganciclovir together with topical corticosteroids) was “ocular inflammation resolved and intraocular pressure normalized”, the “disease status after dose reduction” value ([1]; oral, 450 mg twice daily) was “the disease remained quiet” and the “leukopenia (complete blood counts tested periodically)” value ([1]; oral, 900 mg twice daily) was “no leukopenia developed”. The “time until IOP returned to normal levels” value ([1]; oral, 900 mg twice daily) was “six”, the “time until all keratic precipitates completely resolved” value ([1]; oral, 900 mg twice daily) was 3 months and the “control of the inflammation and lowering of the intraocular pressure” value [2] was “effectiveness”.
